# Where two headings read alike, the source gives them in different places.
# Assays:
# IKZF3 (Aiolos) = target: T1, IKZF3 (Aiolos) (Homo sapiens, UniProt Q9UKT9); experiment: Western blot selectivity assay in MM1S cells: IKZF3; format: cell-based; parameters: key: A represents a no degradation observed at 30 μM; B represents trace degradation at 30 μM (below 20%); C represents weak degradation at 30 μM (below 50%); D represents degradation at 30 μM (>90%); E represents degradation at 3 μM (>90%); F represents degradation at 0.3 μM (>90%); conditions: MM1S cells, 0.3, 3 and 30 μM, 6 hours
# T1 construct: endogenous in cells; host or cells: MM1S (ATCC CRL-2974)
# Procedure: MM1S cells were purchased from ATCC (cat. Number CRL-2974), sub-cultured in 90% RPMI 1640 with 10% FBS, supplemented with 1×P/S and incubated at 37° C., 5% CO2. Compounds were stored as 10 mM DMSO stock. For the assay, MM1S cells (3 million cells/well) were plated in 6-well plates and incubated over night. Cells were treated with respective compounds using a serial dilution: 0.3 μM, 3 μM and 30 μM as well as a vehicle only (DMSO) control for 6 hours. Media with suspension cells was subsequently transferred to 15 mL conical tubes, wells rinsed twice with ice-cold PBS and merged with cell suspension in respective 15 mL conical tube. Cells were spinned down, supernatant aspirated, pellets resuspended in ice-cold PBS and transferred to microtubes. Cells were spinned down, supernatant aspirated and pellets resuspended in 120 μL RIPA lysis buffer supplemented with protease and phosphatase inhibitors. Cell lysates were incubated on ice for 20 minutes followed by centrifugation at >20,000×g for 5 min. Supernatants were transferred to fresh microtubes and stored at −80° C. Total protein concentration was determined using a BCA assay with a BSA standard curve and concentration of all samples was adjusted to 1 mg/mL. 25 μL 4×LDS sample buffer supplemented with 100 mM DTT was added to 75 μL sample. Samples were centrifuged (8,000×g, 1 min) and incubated at 95° C. for 5 min followed by another centrifugation step (8,000×g, 1 min). 20 μL of each sample was loaded on a 4-12% gel alongside a protein molecular weight marker. Gels were run in the presence of MOPS buffer at 80 Volts for 30 min, followed by 120 Volts for 1.5 h and proteins subsequently transferred onto nitrocellulose membranes at 20 Volts for 7 min using an iBlot2 Gel Transfer Device. Membranes were then cut horizontally into two pieces, covering 80-50 kDa and 50-25 kDa. Blocking the membranes was performed by gently shaking in 5% (w/v) skim milk in TSB-T for 1 hr at room temperature. All primary antibodies were used at a 1/1000 in 5% (w/v) BSA dissolved in TBST and incubated with membranes over night at 4° C. Anti-IKZF1 (Ikaros; D6N9Y; 14859S), anti-IKZF3 (Aiolos; D1C1E; 15103S) antibodies were purchased from Cell Signalling Technology, anti-ZFP91 antibody from Bethyl laboratories, anti-GSPT1 from Sigma Aldrich (HPA052488) and anti CK1alpha from AbCam (ab206652). After three washes with 1×TBST for 5 min, HRP-coupled secondary antibodies diluted in 5% (w/v) BSA/TBST (Goat Anti-Rb IgG, dil. 1/10,000; Goat Anti-Mouse IgG, dil. 1/5000) were added for 1 hr at room temperature. […] Chemiluminescence signals were then detected using a LAS-4000 system with default settings and signals quantified using Image Studio Lite software (version 5.2). […]
# GSPT1 [1] = target: T2, GSPT1 (Homo sapiens, UniProt P15170+Q96SW2); experiment: Western blot selectivity assay in MM1S cells: GSPT1; format: cell-based; parameters: endogenous in cells; host or cells: MM1S (ATCC CRL-2974); conditions: MM1S cells, 0.3, 3 and 30 μM, 6 hours
# Procedure: (§1) MM1S cells were purchased from ATCC (cat. Number CRL-2974), sub-cultured in 90% RPMI 1640 with 10% FBS, supplemented with 1×P/S and incubated at 37° C., 5% CO2. Compounds were stored as 10 mM DMSO stock. For the assay, MM1S cells (3 million cells/well) were plated in 6-well plates and incubated over night. Cells were treated with respective compounds using a serial dilution: 0.3 μM, 3 μM and 30 μM as well as a vehicle only (DMSO) control for 6 hours. Media with suspension cells was subsequently transferred to 15 mL conical tubes, wells rinsed twice with ice-cold PBS and merged with cell suspension in respective 15 mL conical tube. Cells were spinned down, supernatant aspirated, pellets resuspended in ice-cold PBS and transferred to microtubes. Cells were spinned down, supernatant aspirated and pellets resuspended in 120 μL RIPA lysis buffer supplemented with protease and phosphatase inhibitors. Cell lysates were incubated on ice for 20 minutes followed by centrifugation at >20,000×g for 5 min. Supernatants were transferred to fresh microtubes and stored at −80° C. Total protein concentration was determined using a BCA assay with a BSA standard curve and concentration of all samples was adjusted to 1 mg/mL. 25 μL 4×LDS sample buffer supplemented with 100 mM DTT was added to 75 μL sample. Samples were centrifuged (8,000×g, 1 min) and incubated at 95° C. for 5 min followed by another centrifugation step (8,000×g, 1 min). 20 μL of each sample was loaded on a 4-12% gel alongside a protein molecular weight marker. Gels were run in the presence of MOPS buffer at 80 Volts for 30 min, followed by 120 Volts for 1.5 h and proteins subsequently transferred onto nitrocellulose membranes at 20 Volts for 7 min using an iBlot2 Gel Transfer Device. Membranes were then cut horizontally into two pieces, covering 80-50 kDa and 50-25 kDa. Blocking the membranes was performed by gently shaking in 5% (w/v) skim milk in TSB-T for 1 hr at room temperature. All primary antibodies were used at a 1/1000 in 5% (w/v) BSA dissolved in TBST and incubated with membranes over night at 4° C. Anti-IKZF1 (Ikaros; D6N9Y; 14859S), anti-IKZF3 (Aiolos; D1C1E; 15103S) antibodies were purchased from Cell Signalling Technology, anti-ZFP91 antibody from Bethyl laboratories, anti-GSPT1 from Sigma Aldrich (HPA052488) and anti CK1alpha from AbCam (ab206652). After three washes with 1×TBST for 5 min, HRP-coupled secondary antibodies diluted in 5% (w/v) BSA/TBST (Goat Anti-Rb IgG, dil. 1/10,000; Goat Anti-Mouse IgG, dil. 1/5000) were added for 1 hr at room temperature. After three washes with 1×TBST (5 minutes each), membranes were incubated with ECL reagent for 1 min at room temperature. Chemiluminescence signals were then detected using a LAS-4000 system with default settings and signals quantified using Image Studio Lite software (version 5.2). Membrane parts previously incubated with antibody against CK1alpha were stripped off antibodies by incubating with stripping buffer for 30 minutes followed by three washed with TBST (5 min each), blocking with 5% (w/v) skim milk for 1 hr, and incubation with primary antibody against GAPDH overnight at 4° C. Subsequent washes, incubation with secondary antibody and signal acquisition were performed as described above.
# [2] = target: T3, Full length wild-type cereblon CRBN (Homo sapiens, UniProt Q96SW2); experiment: Fluorescence polarization (FP) assay, cereblon binding
# T3 construct: Full length wild-type cereblon CRBN (80.0 nM, 10 μL) was incubated in assay buffer
# Method in brief: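 Full-length wild-type human CRBN (80.0 nM) was preincubated with compound for 30 min at room temperature in 20 mM HEPES pH 8.0, 150 NaCl, 0.5 mM TCEP and 0.05% Tween 20. A Cy5-type thalidomide-linked fluorescent probe was then added. The FP signal was normalized to the DMSO control to derive IC50.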
# IKZF1 (Ikaros) = target: T4, IKZF1 (Ikaros) (Homo sapiens, UniProt Q13422); experiment: Western blot selectivity assay in MM1S cells: IKZF1; format: cell-based; parameters: key: A represents a no degradation observed at 30 μM; B represents trace degradation at 30 μM (below 20%); C represents weak degradation at 30 μM (below 50%); D represents degradation at 30 μM (>90%); E represents degradation at 3 μM (>90%); F represents degradation at 0.3 μM (>90%); conditions: MM1S cells, 0.3, 3 and 30 μM, 6 hours
# T4 construct: endogenous in cells; host or cells: MM1S (ATCC CRL-2974)
# Procedure: as §1
# GSPT1 [3] = target: T2, GSPT1; experiment: Immunofluorescence assay for GSPT1 degradation in CAL-51 cells (Example 4); format: cell-based; parameters: host or cells: CAL-51
# Procedure: The representative compounds were tested in an immunofluorescence assay for their activity to bind to degrade GSPT1. […] Compounds were stored at 10 mM DMSO stocks. […] Cells were subsequently rinsed with PBS and fixed in 10% Formalin solution (50 μl, Sigma HT5011)) for 20 mins at room temperature. […] Following three further PBS washes, […] blocking buffer (1% BSA, Sigma A4503, in PBS) was added for 45 min for signal-to-noise reduction.
# Primary antibody (human GSPT1, Sigma HPA052488) was diluted in blocking buffer (dil.1/300, 35 μl/well) and incubated with the cells overnight at 4° C. […] After three final PBS washes, samples were conserved in 100 μl PBS in the dark, until measurement. Image acquisition was performed on the Operetta High-Content Imager (Perkin-Elmer). […] For the determination of GSPT1 DC50 values, a custom algorithm implemented in the PerkinElmer image analysis software Harmony-Acapella® was developed. After user-defined setting of adjustment parameters, the analysis was run identically without human intervention for all image fields. DAPI staining of the nuclei was used to determine the location of cells using standard nuclei detection modules. Segmentation artifacts were removed by threshold-based filters for area, roundness and intensity. The outline of the cells was determined analogously from the sum of the normalized, smoothed DAPI and Actin channel, starting from each nucleus.
# GSPT1 degradation (DC50) was calculated after normalization to controls and data import in CDD vault Database, using non-linear regression.
# [4] = bounds stated in the text lists b2059-b2061, read-out: IC50 value
# [5] = cereblon binding, class code, read-out: rFP IC50
# [6] = CAL-51 cells, 6 hours, read-out: Code (activity for GSPT1 degradation, DC50)
# [7] = compounds with code A, read-out: DC50 value
# T4 sequence (Q96SW2 whole entry partner): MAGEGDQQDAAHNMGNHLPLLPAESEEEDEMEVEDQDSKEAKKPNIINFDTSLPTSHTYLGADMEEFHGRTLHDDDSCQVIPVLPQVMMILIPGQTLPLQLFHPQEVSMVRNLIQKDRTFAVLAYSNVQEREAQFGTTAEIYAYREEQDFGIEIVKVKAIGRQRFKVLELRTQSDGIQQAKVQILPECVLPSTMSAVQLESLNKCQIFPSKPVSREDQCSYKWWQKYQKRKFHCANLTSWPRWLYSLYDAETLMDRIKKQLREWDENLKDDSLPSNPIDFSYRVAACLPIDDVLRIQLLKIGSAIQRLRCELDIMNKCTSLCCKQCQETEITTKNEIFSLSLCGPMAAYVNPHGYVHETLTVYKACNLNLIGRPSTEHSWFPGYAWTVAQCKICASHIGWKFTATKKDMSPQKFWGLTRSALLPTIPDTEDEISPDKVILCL
# T4 sequence (Q16531 2-1140 partner limits assumed): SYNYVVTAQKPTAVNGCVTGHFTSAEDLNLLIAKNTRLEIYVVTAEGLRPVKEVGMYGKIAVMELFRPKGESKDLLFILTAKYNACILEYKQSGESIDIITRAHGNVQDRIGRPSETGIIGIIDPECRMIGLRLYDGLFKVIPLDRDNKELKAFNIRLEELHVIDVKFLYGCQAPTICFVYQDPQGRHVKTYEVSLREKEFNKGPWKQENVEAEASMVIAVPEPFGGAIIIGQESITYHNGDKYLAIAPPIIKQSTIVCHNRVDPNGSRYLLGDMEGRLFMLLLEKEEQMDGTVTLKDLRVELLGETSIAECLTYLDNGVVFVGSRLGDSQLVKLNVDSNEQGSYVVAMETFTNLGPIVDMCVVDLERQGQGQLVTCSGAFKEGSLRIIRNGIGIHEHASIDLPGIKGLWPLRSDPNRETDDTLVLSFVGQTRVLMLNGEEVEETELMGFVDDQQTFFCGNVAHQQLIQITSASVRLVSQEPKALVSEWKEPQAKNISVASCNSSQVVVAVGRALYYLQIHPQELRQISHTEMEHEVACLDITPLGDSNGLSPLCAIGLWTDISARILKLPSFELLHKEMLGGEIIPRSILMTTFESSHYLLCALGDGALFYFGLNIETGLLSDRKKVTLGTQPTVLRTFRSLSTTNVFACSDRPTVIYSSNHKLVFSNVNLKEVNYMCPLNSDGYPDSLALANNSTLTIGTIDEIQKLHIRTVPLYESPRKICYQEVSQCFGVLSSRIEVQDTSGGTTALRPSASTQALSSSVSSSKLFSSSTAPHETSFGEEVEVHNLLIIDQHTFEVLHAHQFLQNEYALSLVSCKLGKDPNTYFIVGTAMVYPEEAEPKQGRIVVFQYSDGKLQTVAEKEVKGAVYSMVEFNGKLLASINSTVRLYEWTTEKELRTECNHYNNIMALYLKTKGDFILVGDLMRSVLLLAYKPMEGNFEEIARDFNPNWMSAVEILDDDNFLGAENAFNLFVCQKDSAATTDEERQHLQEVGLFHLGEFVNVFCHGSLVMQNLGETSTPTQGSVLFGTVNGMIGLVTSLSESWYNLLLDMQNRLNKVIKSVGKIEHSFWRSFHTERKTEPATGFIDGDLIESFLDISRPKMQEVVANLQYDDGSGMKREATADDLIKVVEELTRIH
# T4 sequence (Q13422 whole entry): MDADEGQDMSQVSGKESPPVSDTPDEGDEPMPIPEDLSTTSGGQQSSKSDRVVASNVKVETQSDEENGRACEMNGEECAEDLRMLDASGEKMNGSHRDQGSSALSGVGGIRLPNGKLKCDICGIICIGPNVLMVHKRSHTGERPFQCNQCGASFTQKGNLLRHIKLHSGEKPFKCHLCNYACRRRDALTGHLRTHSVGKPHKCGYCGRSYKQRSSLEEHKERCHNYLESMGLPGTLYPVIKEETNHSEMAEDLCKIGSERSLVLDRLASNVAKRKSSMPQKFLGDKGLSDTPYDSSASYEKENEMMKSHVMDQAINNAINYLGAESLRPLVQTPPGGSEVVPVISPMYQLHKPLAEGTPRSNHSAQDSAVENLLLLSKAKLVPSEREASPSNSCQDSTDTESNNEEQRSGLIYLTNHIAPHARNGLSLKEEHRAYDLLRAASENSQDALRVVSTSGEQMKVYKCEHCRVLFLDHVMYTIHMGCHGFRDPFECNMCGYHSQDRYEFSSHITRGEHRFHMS
# T3 sequence (Q96SW2 whole entry): as the sequence (Q96SW2 whole entry partner) above
# T1 sequence (Q96SW2 whole entry partner): as above
# T1 sequence (Q16531 2-1140 partner limits assumed): as the sequence (Q16531 2-1140 partner limits assumed) above
# T1 sequence (Q9UKT9 whole entry): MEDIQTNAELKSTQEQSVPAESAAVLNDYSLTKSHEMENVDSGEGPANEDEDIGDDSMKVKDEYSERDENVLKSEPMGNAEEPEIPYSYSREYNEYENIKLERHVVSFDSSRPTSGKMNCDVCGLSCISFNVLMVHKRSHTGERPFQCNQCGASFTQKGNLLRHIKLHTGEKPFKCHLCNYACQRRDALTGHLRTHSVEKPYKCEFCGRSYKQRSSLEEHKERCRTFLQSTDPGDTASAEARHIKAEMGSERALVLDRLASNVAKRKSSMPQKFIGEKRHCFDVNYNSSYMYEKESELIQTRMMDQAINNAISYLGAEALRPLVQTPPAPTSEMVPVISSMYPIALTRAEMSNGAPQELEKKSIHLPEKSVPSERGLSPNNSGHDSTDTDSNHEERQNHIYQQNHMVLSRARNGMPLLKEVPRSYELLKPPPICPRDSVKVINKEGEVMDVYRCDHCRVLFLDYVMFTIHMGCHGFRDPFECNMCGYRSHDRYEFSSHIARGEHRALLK
# T2 sequence (P15170 whole entry): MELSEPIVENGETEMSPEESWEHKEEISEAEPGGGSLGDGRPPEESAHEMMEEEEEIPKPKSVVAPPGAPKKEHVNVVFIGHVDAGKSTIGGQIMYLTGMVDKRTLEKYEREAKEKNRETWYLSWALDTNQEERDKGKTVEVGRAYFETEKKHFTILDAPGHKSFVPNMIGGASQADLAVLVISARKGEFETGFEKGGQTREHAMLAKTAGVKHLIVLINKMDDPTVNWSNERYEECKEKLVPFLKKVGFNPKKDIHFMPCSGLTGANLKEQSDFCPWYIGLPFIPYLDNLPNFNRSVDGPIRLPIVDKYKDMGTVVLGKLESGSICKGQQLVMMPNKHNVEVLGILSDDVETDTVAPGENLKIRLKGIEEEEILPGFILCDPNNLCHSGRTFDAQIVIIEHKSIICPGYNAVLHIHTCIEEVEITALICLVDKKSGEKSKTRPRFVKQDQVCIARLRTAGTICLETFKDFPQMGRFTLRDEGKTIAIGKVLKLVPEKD
# T2 sequence (Q96SW2 whole entry): as the sequence (Q96SW2 whole entry partner) above
# T2 sequence (Q16531 2-1140 partner limits assumed): as the sequence (Q16531 2-1140 partner limits assumed) above
IKZF3 degradation (IKZF3 (Aiolos)),"IC50 [2, 4] [nM]","IC50 [2, 5] [nM]",IKZF1 degradation (IKZF1 (Ikaros)),DC50 (GSPT1 [3]; [6]) [µM],Structure (SMILES),GSPT1 degradation (GSPT1 [1]),DC50 (GSPT1 [3]; [7]) [µM],"IC50 ([2]; IC50 value, bounds stated in the text lists b2059-b2061) [nM]","IC50 ([2]; rFP IC50 [nM], cereblon binding, class code) [nM]","DC50 (GSPT1 [3]; read-out: Code (activity for GSPT1 degradation, DC50), CAL-51 cells, 6 hours) [µM]"
A,< 1700,1100 to 1700,A,–,CC(C)(C)c1ccc(NC(=O)OCc2ccc3c(c2)C(=O)N(C2CCC(=O)NC2=O)C3)cc1 (stereo not shown) [Compound 47],F (F represents degradation at 0.3 μM (>90%)),–,–,–,–
–,< 500,< 500,–,0.03 to 0.3,"O=C1CCC(N2Cc3ccc(COC(=O)Nc4ccc(C5(F)CC5)cc4)cc3C2=O)C(=O)N1 (stereo not shown) [Compound 115, (2-(2,6-dioxopiperidin-3-yl)-3-oxoisoindolin-5-yl)methyl(4-(1-fluorocyclopropyl)phenyl) carbamate]",–,–,–,–,–
–,–,–,–,–,O=C1CCC(N2Cc3ccc(COC(=O)Nc4cc(Cl)cc(OC(F)(F)F)c4)cc3C2=O)C(=O)N1 (stereo not shown) [Compound 11],–,≤ 0.03,–,–,–
A,< 1700,1100 to 1700,A,–,CCc1ncc(NC(=O)OCc2ccc3c(c2)C(=O)N(C2CCC(=O)NC2=O)C3)cc1C (stereo not shown) [Compound 49],F (F represents degradation at 0.3 μM (>90%)),–,–,–,–
A,–,–,A,–,O=C1CCC(N2Cc3ccc(COC(=O)Nc4ccc(-c5ccccc5)nc4)cc3C2=O)C(=O)N1 (stereo not shown) [Compound 42],F (F represents degradation at 0.3 μM (>90%)),–,–,–,–
–,–,–,–,–,"Cc1c(Cl)cc(NC(=O)OCc2ccc3c(c2)C(=O)N(C2CCC(=O)NC2=O)C3)cc1CC1COCCN1C (stereo not shown) [Compound 150, (2-(2,6-dioxopiperidin-3-yl)-3-oxoisoindolin-5-yl) methyl(3-chloro-4-methyl-5-((4-methylmorpholin-3-yl)methyl)phenyl)carbamate]",–,≤ 0.03,< 1700,1100 to 1700,< 0.03
–,< 1700,1100 to 1700,–,0.03 to 0.3,CC(F)(F)c1ccc(NC(=O)OCc2ccc3c(c2)C(=O)N(C2CCC(=O)NC2=O)C3)cc1 (stereo not shown) [Compound 99],–,–,–,–,–
–,< 1700,500 to 1100,A,–,O=C1CCC(N2Cc3ccc(COC(=O)Nc4ccc(N5CCCCC5)nc4)cc3C2=O)C(=O)N1 (stereo not shown) [Compound 15],F (F represents degradation at 0.3 μM (>90%)),–,–,–,–

# — patent US20230348418A1, “ISOINDOLINONE COMPOUNDS” (Monte Rosa Therapeutics, Inc., priority 2021, published 2023)
